Experimental data reported in patent publication US6613798B1, “Small organic molecule regulators of cell proliferation” (Curis, Inc., priority 2000, dated 2003).
“Also recorded” adds a separate entry of the source.

Assays:
[1] = test system: human embryonic palatal mesenchyme (HEPM) cells with a Gli-Luc construct; test: Gli-Luc reporter assay in human reporter cells; format: cell-based
Source text: FIGS. 47A and B compare the activity of subject compounds O and R in mouse reporter cells (TM3 cells with a Gli-Luc reporter construct, as described above) and in human reporter cells (human embryonic palatal mesenchyme (HEPM) cells with a Gli-Luc construct).

Ptc-1 = test: Quantitative RT-PCR (TaqMan) measurement of Ptc-1 transcript in C3H 10T1/2 cells; format: cell-based, Murine; settings: compound concentration of 8 μM
Method: (§1) The compounds of FIGS. 32 and 33 were tested for their ability to activate transcription of two well-studied targets of the Hedgehog pathway: the transcription factor Gli-1, and the putative Hedgehog receptor component Ptc-1.
(§2) Murine C3H 10T1/2 cells were seeded at approximately 200,000 cells per well in a 24-well plate in complete medium (10% FBS). After 24 hr, medium was removed and replaced with “starvation” medium (0.5% FBS) containing dilutions of compound or Hh protein. After 16-18 hr, total RNA was prepared using TriZol (Life Technologies, inc.).
(§3) One microgram aliquots of total RNA were used to prepare random hexamer-primed cDNA with […] Reverse transcriptase (Life Technologies, Inc.).
(§4) To measure the relative levels of Gli-1 and Ptc-1 transcripts, TaqMan assays (PE Biosystems) were performed with an ABI Prism 7700 Sequence Detection System. As an internal control, GAPDH transcript levels were simultaneously measured in each reaction. Data were analyzed using Sequence Detector v1.6.3 (Perkin Elmer).

Gli-1 = test: Quantitative RT-PCR (TaqMan) measurement of Gli-1 transcript in C3H 10T1/2 cells; format: cell-based, Murine; settings: compound concentration of 8 μM
Method: as §1, §2, §3, §4

[2] = test system: cerebellar neuron precursors; test: Cerebellar neuron precursor proliferation (3H-thymidine incorporation); format: cell-based, rat; settings: in the absence of Hh protein treatment
Method: In order to test the efficacy of Hedgehog signaling agonists, the ability of the agonists to stimulate the proliferation of cerebellar neuron precursors was determined. Cerebellar granule neuron precursors are known to respond to Hh protein by proliferating. To test the agonists, cerebellar neurons were dissected out of postnatal (one week) rat brains, and placed into primary cell culture. Treatment agents were added once, on the first day of culture (0 DIV). Cells were left in culture until 2 DIV, when 3H-thymidine was added for 5 hours; the amount of incorporation by the cells of this 3H-thymidine provides a measure of the level of proliferation of the cells. Cells were then lysed, and the incorporation of 3H-thymidine was determined. The positive control was Hh protein, at 1.0 μg/ml final concentration. Hh protein alone caused approximately a 20-fold increase in 3H-thymidine incorporation, consistent with the known ability of Shh to stimulate proliferation of these cells. Non-Hh-protein-stimulated cells, including cells treated with control vehicle (DMSO), had very low levels of proliferation. […] At 5.0 μM, the p-cyanophenyl compound B caused 10.2-fold induction of 3H-thymidine incorporation. […] At 1.0, 0.3, or 0.1 μM, D caused 16-, 17-, or 13-fold induction, respectively, of 3H thymidine incorporation into the cells.

[3] = test system: patched (ptc-lacZ β-galactosidase reporter); test: Reporter mice assay (ptc-lacZ mice, X-gal staining of tissues); format: in vivo, mouse
Method: Mice with a β-galactosidase transgene (ptc-lacZ mice) under the regulatory control of the patched locus expresss the β-galactosidase protein in the same cells where the endogenous mouse patched gene is expressed. The β-galactosidase protein can thus be used as a faithful reporter of the expression of the endogenous patched gene.
Ptc-lacZ mice were divided into four treatment groups and were treated with the following compounds or combinations of compounds for four days, beginning on the first day after birth (dipal-Shh=dipalmitoylated Sonic hedgehog):
The vehicle for the agonist was 10% DMSO in PBS (pH 7.2). The agonist was injected from a 4.67 mM stock dissolved in the vehicle solution.
18 hours following the last injections, the mice were sacrificed and the following tissues were collected: skull, kidney, lung, scapula, skin and heart. All tissues were fixed in 0.2% glutaraldehyde, 5 mM EDTA (pH 8.0), 20 mM MgCl2, 100 mM Na2HPO4 for 30 minutes before staining in 1 mg/ml X-gal, 12.5 mM potassium ferrocyanide, 12.5 mM potassium ferricyanide, 2 mM MgCl2, 0.01% deoxycholate, 0.02% NP-40, and 100 mM Na2HPO4 for 30 hours. Tissues were judged for relative intensity and photographed.
FIG. 42: Ptc-lacZ mice were divided into two treatment groups and were treated with the following compounds for three days, beginning on the first day after birth:
The vehicle for the agonist was 10% DMSO in PBS (pH 7.2). The agonist was injected from a 1.0 mM stock dissolved in the vehicle solution.
Eighteen hours following the last injections, the mice were sacrificed and the forelimbs were collected and processed as described above.
In a third experiment, Ptc-lacZ mice were divided into five treatment groups and were treated with the following compounds for four days, beginning on the first day after birth:
The vehicle for the agonist was 10% DMSO in PBS (pH 7.2). The agonist was injected from stocks of 0.3, 0.1 and 0.03 mM dissolved in the vehicle solution.
Eighteen hours following the last injections, the mice were sacrificed and the forelimbs were collected and processed as described above. Results of this experiment are depicted in FIG. 43, in which the vehicle control is not shown.

ptc-lacZ skin punches = test: Skin explants from ptc-lacZ pups (X-Gal stain); format: cell-based, mouse; settings: agonist and a low dose of Hh protein, cultured 6 days
Method: Skin from ptc-lacZ E17.5 pups was excised with a 2 mm skin punch. Those skin punches were then cultured for 6 days in control media, or media including either agonist B or D or Hh protein, or media including both an agonist and Hh protein. The explants were then stained with X-Gal stain.

[4] = test system: ptc-1 (d11) lacZ kidney explants; test: Kidney branching assay (ptc-1 lacZ kidney explants); format: cell-based, mouse; settings: 5 μM, 48 hrs culture
Method: (§5) E13.5 old ptc-1 (d11) lacZ lungs were harvested and transgenic embryos identified by lacZ detection using tails. Explants were assembled on 1 μm polycarbonate filters (Costar) placed on top of plastic grids (histology embedding chamber) and placed in standard 12-well tissue culture plates filled with kidney explant culture medium (DMEM based, additives optimized for the culture of mouse lungs) for 48 hrs, fixed in lacZ fixative, rinsed and stained for lacZ O/N at 37° C.
Results are depicted in FIG. 45. In the control panel on the left, LacZ expression can be observed in the mesenchyme immediately adjacent to proximalmost ureteric epitheilium, a pattern reflective of endogenous patched expression.

ptc-1 (d11) lacZ lungs = test: Lung branching assay (ptc-1 lacZ lung explants); format: cell-based, mouse; settings: 5 μM, 48 hrs culture
Method: as §5, with “E 12.5” for “E13.5”, “lung” for “kidney”
Results are depicted in FIG. 44. In the control panel on the left, LacZ expression can be observed in the mesenchyme immediately adjacent to distal branching tips, a pattern reflective of endogenous patched expression.

CNC1CCC(N(Cc2ccc(-c3cccnc3)o2)C(=O)c2sc3ccccc3c2Cl)CC1 (centres unmarked) [R]
activation of Gli-Luc reporter in human cells [1]: activation of the reporter cell line

COc1ccc(CN(C(=O)c2sc3ccccc3c2Cl)C2CCC(N)CC2)cc1-c1cccc([N+](=O)[O-])c1 (centres unmarked) [A]
induction of Ptc-1 relative to that obtained with the optimal concentration of Hh protein (Ptc-1): ~40% | induction of Gli-1 relative to that obtained with the optimal concentration of Hh protein (Gli-1): ~40% | stimulation of 3H-thymidine incorporation [2]: significantly stimulate 3H-thymidine incorporation

CNC1CCC(N(Cc2ccc(OC)c(-c3ccc(C#N)cc3)c2)C(=O)c2sc3ccccc3c2Cl)CC1 (centres unmarked) [D]
upregulation of hedgehog pathway (β-galactosidase) in forelimbs ([3]; 0.1 mg/kg/injection 4X/day, four days): very weak upregulation | upregulation of hedgehog pathway (β-galactosidase) in forelimbs ([3]; 0.3 mg/kg/injection 4X/day, four days): greater than that seen with injections of Hh protein | upregulation of hedgehog pathway (β-galactosidase) in forelimbs ([3]; 0.9 mg/kg/injection 4X/day, four days, listed as agonist D): highest levels of upregulation; also recorded: greater than that seen with injections of Hh protein | upregulation of hedgehog pathway (β-galactosidase) in forelimbs ([3]; 4 mg/kg/injection 4X/day, three days, absence of dipal-Shh, listed as Agonist D): clearly capable of upregulating the hedgehog pathway in vivo | upregulation of hedgehog pathway (β-galactosidase) in forelimbs ([3]; 4 mg/kg/injection 4X/day, three days, absence of dipal-Shh, listed as agonist D): greater than that seen with injections of dipal-Shh | X-Gal staining of skin explants (ptc-lacZ skin punches): Analogous results | stimulation of 3H-thymidine incorporation [2]: strongly stimulated 3H-thymidine incorporation

COc1ccc(CN(C(=O)c2sc3ccccc3c2Cl)C2CCC(N)CC2)cc1-c1ccc(C#N)cc1 (centres unmarked) [B]
upregulation of β-galactosidase (hedgehog pathway) in tissues ([3]; 15 mg/kg/injection 4X/day plus dipal-Shh 1 mg/kg/injection 2X/day, four days from first day after birth, skull, kidney, lung, scapula, skin, heart): clearly capable of upregulating the hedgehog pathway in vivo | induction of Ptc-1 relative to that obtained with the optimal concentration of Hh protein (Ptc-1): approximately 60% | LacZ reporter gene expression in kidney explants [4]: significantly increased reporter gene expression and expansion of the expression domain of the transgene | induction of Gli-1 relative to that obtained with the optimal concentration of Hh protein (Gli-1): approximately 60% | LacZ reporter gene expression in lung explants (ptc-1 (d11) lacZ lungs): significantly increased reporter gene expression and expansion of the expression domain of the transgene | stimulation of 3H-thymidine incorporation [2]: significantly stimulate 3H-thymidine incorporation
